Data taken from patent publication US20220387375A1, “TRPV1 ACTIVATION-MODULATING COMPLEX MIXTURES OF CANNABINOIDS AND/OR TERPENES” (GBS Global Biopharma, Inc., priority 2018, published 2022).

Experiments:
Assay type in all cases: cell-based
TRPV2 = target: T1, TRPV2 (Homo sapiens, UniProt Q9Y5S1); test: Bulk calcium assay (Fluo-4) in HEK cells overexpressing TRPV2
T1 construct: host or cells: HEK TRex293
T1 sequence (Q9Y5S1 1-764): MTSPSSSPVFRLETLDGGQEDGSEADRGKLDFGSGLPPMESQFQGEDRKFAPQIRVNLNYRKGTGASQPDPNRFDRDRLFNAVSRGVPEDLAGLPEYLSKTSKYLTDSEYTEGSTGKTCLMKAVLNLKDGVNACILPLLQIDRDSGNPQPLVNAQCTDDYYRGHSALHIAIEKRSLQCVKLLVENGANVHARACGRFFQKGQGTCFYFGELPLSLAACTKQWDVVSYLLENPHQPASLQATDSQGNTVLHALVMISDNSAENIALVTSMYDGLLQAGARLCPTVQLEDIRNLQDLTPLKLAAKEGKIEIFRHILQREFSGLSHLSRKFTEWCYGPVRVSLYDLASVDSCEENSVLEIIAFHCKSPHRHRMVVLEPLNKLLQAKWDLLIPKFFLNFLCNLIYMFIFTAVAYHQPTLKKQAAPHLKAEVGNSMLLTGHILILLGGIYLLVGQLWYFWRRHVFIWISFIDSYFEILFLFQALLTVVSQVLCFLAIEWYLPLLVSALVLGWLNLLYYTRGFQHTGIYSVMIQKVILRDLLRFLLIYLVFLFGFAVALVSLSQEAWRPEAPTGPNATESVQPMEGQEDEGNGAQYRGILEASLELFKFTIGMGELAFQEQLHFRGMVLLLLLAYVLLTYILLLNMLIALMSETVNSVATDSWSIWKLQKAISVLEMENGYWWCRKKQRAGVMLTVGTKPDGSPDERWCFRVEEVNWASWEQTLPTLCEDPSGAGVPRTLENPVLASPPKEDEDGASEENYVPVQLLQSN
Description: (§1) HEK TRexTRPV1 were cultured in DMEM, 10% Fetal Bovine Serum, 2 mM Lglutamine, 10 μg/ml Blasticidin (Calbiochem, San Diego Calif.), 400 μg/ml Zeocin (InvivoGen, San Diego Calif.), where indicated transgene expression was induced using 1 μg/ml Tetracycline for 16-24 hrs. Unless otherwise indicated, basal expression of TRPV1 without induction was sufficient for these studies, and comparisons were made to untransfected HEK where needed. HEKTRex293 over-expressing human TRPV2, human TRPA1 and human TRPM8 were obtained from SB Drug Discovery (Glasgow, Scotland) and cultured as described above. The cannabinoids and terpenes were assayed in HEK cells that have been transfected with the TRPV1 ion channel protein. These cells are called HEK293-V1 cells.
(§2) Cells were washed and incubated with 0.2 micromolar Fluo-4 for 30 minutes at 37° C. in a standard modified Ringer's solution of the following composition (in mM): NaCl 145, KCl 2.8, CsCl 10, CaCl2 10, MgCl2 2, glucose 10, Hepes·NaOH 10, pH 7.4, 330 mOsm. Cells were transferred to 96-well plates at 50,000 cells/well and stimulated as indicated. Calcium signals were acquired using a Flexstation 3 (Molecular Devices, Sunnydale, USA). Data was analyzed using SoftMax® Pro 5 (Molecular Devices). Where indicated, nomically calcium-free external conditions were achieved by the preparation of 0 mM CaCl2 Ringer solution containing 1 mM EGTA.
(§3) Calcium responses mediated by TRPA1, TRPM8, TRPV2, and TRPV1 were tested by calcium assay in the cell culture system. Cells were washed and incubated with 0.2 μM fluo-4 acetoxymethyl ester (“Fluo-4”) for 30 minutes at 37° C. in a standard modified Ringer's solution of the following composition (in mM): NaCl 145, KCl 2.8, CsCl 10, CaCl2 10, MgCl2 2, glucose 10, Hepes·NaOH 10, pH 7.4, 330 mOsm. Cells were transferred to 96-well plates at 50,000 cells/well and stimulated with 10 μM myrcene diluted in DMSO. Vehicle (DMSO) was used as a negative control. Vehicle traces were subtracted from the myrcene traces for each cell line.
(§4) The potential for different cannabinoids to target specific TRP channels, or to co-target more than one channel type, are of potential therapeutic options for the treatment and management of pain. Comparison of the impacts of a variety of cannabinoid on overexpression systems for TRPV2, TRPM8, and TRPA1 were performed in a side-by-side fashion, under bulk calcium assays where the measurements with each trace representing averaged triplicates of 100,000 cells per sample. As shown in FIGS. 41-43 and summarized in Table 3, there are clear differences in responsiveness between cannabinoids at a single channel type than between channel types to a given cannabinoid.

TRPM8 = target: T2, TRPM8 (Homo sapiens, UniProt Q7Z2W7); test: Bulk calcium assay (Fluo-4) in HEK cells overexpressing TRPM8
T2 construct: host or cells: HEK TRex293
Description: as §1, §2, §3, §4

TRPV1 = target: T3, TRPV1 (Rattus norvegicus, UniProt O35433); test: Bulk calcium assay (Fluo-4) in HEK-TRPV1 overexpressing cells; settings: bulk calcium assay; TRPV1; mean (SD)
T3 construct: FLAG; expressed in transfected cells
Description: as §2
The cell culture system described in U.S. patent application Ser. No. 15/986,316 was used to test the TRPV1-mediated calcium response to various terpenes. The HEK293 cell line was stably transfected with the pcDNA6TR (Invitrogen, CA) plasmid (encoding the tetracycline-sensitive TREx repressor protein), and was maintained in DMEM+10% fetal bovine serum (inactivated at 55° C. for 1 h)+2 mM glutamine in humidified 5% CO2 atmosphere at 37° C. Selection pressure on the TRex 293 cells was maintained by continuous culture in 10 μg/ml Blasticidin (Sigma, St Louis, Mo.).
For production of TRex HEK293 cells with inducible expression of TRPV1, parental cells were electroporated with the rat TRPV1 cDNA in the pcDNA4TO vector and clonal cell lines were selected by limiting dilution in the presence of 400 μg/ml zeocin (Invitrogen, CA). TRPV1 expression was induced using 1 μg/ml tetracycline for 16 h at 37° C. Stable lines were screened for inducible protein expression using anti-FLAG Western blot, and inducible expression was confirmed.
Calcium responses mediated by TRPV1 were tested by calcium assay in the cell culture system. Cells were washed and incubated with 0.2 μM fluo-4 acetoxymethyl ester (“Fluo-4”) for 30 minutes at 37° C. in a standard modified Ringer's solution of the following composition (in mM): NaCl 145, KCl2.8, CsCl10, CaCl2 10, MgCl2 2, glucose 10, Hepes·NaOH 10, pH 7.4, 330 mOsm. Cells were transferred to 96-well plates at 50,000 cells/well and stimulated as indicated. The terpenes used were alpha-bisabool, alpha-pinene, myrcene, camphene, linalool, ocimene, humulene, beta-caryophyllene, beta-pinene, limonene, and nerolidol. The terpenes were diluted in DMSO and added to the wells to a final concentration of 10 μM. Vehicle (DMSO) alone was run as a negative control and subtracted from the terpene traces. Calcium signals were acquired using a Flexstation 3 (Molecular Devices, Sunnydale, USA). Data was analyzed using SoftMax® Pro 5 (Molecular Devices).
as §3
As shown in FIGS. 16A-H, a variety of cannabinoids were capable of initiating Ca^2+ fluxes in HEK-TRPV1 overexpressing cells, except for cannabigerol and cannabinol. Comparative responses to a single dose (10 μM concentration) of a variety of cannabinoids were made in the presence of 1 mM external Ca^2+, which are population-based, or bulk Ca^2+, measurements with each trace representing averaged triplicates of 100,000 cells per sample. […] For each of the cannabinoid compounds, dose responses at the population level were performed. […] The lower limit of detectable calcium responses in this system varied from 10-100 nM (CBDV, CBGA) to 1-10 μM.

TRPA1 = target: T4, TRPA1 (Homo sapiens, UniProt O75762); test: Bulk calcium assay (Fluo-4) in HEK cells overexpressing TRPA1
T4 construct: host or cells: HEK TRex293
Description: as §1, §2, §3, §4

WT HEK293 = test: Bulk calcium assay in untransfected WT HEK293; settings: 10 μM, 1 mM external Ca2+

T2 sequence (Q7Z2W7 whole entry): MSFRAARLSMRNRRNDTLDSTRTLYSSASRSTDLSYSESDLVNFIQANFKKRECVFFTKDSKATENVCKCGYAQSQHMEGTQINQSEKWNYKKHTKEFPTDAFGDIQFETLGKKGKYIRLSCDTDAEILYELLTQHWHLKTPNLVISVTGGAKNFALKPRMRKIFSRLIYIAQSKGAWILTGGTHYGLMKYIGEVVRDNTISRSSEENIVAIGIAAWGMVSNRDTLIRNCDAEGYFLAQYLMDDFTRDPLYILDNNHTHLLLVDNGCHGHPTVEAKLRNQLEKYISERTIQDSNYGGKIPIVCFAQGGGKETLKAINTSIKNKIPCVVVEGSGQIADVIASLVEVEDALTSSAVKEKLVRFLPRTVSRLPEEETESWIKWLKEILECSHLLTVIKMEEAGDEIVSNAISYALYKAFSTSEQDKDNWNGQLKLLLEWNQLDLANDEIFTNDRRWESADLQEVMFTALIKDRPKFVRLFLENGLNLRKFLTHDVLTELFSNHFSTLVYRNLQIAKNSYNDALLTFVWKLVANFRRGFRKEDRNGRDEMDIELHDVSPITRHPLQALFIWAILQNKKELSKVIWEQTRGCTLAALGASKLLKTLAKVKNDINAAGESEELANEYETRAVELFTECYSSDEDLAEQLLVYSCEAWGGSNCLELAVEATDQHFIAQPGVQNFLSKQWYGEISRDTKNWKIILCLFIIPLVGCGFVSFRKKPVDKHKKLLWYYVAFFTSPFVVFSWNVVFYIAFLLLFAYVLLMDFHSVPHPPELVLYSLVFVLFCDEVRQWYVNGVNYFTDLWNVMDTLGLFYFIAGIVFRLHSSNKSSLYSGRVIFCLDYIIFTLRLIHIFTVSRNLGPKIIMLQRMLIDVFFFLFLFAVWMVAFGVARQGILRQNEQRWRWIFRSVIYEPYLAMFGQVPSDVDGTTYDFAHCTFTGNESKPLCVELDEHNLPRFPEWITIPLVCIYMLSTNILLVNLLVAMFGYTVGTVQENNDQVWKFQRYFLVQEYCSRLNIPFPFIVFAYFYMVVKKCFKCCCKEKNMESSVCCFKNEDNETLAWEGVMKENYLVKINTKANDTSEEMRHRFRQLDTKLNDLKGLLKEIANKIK
T3 sequence (O35433 whole entry): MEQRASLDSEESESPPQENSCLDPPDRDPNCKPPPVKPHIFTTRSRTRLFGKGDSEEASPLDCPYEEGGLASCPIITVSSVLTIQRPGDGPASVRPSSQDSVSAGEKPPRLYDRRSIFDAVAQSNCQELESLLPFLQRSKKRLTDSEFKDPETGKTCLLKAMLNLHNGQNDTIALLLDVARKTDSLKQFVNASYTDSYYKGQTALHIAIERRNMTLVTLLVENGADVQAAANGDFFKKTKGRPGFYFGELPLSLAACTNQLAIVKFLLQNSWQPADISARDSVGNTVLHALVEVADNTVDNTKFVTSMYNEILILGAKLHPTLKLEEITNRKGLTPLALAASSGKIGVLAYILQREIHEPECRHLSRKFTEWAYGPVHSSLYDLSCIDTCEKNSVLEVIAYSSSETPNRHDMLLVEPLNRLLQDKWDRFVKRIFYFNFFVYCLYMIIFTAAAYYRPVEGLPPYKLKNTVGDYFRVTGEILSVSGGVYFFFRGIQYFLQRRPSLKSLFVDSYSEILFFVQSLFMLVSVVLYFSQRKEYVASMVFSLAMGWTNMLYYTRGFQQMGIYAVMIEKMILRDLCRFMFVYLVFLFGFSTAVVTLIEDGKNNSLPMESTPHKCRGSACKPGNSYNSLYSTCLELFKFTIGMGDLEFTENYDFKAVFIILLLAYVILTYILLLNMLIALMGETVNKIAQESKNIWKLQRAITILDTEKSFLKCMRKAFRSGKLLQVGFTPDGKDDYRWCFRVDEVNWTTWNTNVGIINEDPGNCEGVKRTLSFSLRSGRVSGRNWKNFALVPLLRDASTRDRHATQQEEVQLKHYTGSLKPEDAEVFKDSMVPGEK
T4 sequence (O75762 whole entry): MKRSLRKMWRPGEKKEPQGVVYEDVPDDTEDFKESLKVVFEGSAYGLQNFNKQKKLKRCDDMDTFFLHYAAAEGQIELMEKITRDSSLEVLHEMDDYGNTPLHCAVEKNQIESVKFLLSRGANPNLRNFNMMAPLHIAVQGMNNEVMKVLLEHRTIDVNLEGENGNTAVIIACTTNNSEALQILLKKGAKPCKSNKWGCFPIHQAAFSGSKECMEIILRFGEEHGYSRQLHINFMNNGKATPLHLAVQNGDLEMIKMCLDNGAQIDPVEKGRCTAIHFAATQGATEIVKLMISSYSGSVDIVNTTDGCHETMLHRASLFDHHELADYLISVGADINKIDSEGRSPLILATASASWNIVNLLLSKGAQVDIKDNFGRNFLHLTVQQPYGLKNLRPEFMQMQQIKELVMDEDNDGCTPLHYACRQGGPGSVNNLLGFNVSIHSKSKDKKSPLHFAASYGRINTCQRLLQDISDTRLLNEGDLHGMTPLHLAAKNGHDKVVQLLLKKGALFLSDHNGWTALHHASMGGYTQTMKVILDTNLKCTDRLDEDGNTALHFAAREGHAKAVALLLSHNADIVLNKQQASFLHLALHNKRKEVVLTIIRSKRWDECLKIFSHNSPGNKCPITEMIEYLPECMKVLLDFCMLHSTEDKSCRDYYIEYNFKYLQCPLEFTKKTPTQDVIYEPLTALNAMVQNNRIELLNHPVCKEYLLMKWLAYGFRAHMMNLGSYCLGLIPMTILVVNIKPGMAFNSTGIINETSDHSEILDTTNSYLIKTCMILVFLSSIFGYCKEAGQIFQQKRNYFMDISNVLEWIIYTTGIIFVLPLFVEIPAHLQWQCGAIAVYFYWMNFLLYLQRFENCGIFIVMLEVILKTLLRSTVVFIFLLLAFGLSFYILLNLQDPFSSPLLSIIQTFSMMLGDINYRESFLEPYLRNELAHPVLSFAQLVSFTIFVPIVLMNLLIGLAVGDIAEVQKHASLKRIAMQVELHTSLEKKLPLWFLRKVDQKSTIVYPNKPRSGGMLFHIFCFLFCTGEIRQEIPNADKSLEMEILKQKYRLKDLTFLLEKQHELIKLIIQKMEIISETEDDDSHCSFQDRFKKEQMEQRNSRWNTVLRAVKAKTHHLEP

Row | SMILES | mean maximal Ca^2+ signal RFU achieved 0-180 s (SD), TRPV1 (TRPV2) | mean maximal Ca^2+ signal RFU achieved 0-180 s (SD), TRM8 (TRPM8) | mean maximal Ca^2+ signal RFU achieved 0-180 s (SD), TRPV1 (TRPV1) | mean maximal Ca^2+ signal RFU achieved 0-180 s (SD), TRPA1 (TRPA1) | calcium response of WT HEK293 (WT HEK293)
1 | C=C(C)[C@@H]1CCC(C)=C[C@H]1c1c(O)cc(CCCCC)c(C(=O)O)c1O [CBDA, Cannabidiolic Acid] | 3.69 (1.2) RFU | 1.92 (0.04) RFU | 4.62 (0.66) RFU | 10.09 (3.08) RFU | 
2 | CCCCCc1cc(O)c2c(c1)OC(C)(CCC=C(C)C)C=C2 (stereo not shown) [CBC, Cannabichromene] | 21.66 (1.89) RFU | 0.97 (0.03) RFU | 3.23 (0.12) RFU | 15.13 (3.35) RFU | 
3 | CCCCCc1cc(O)c(C/C=C(\C)CCC=C(C)C)c(O)c1C(=O)O [CBGA, Cannabigerolic Acid] | 0.78 (0.02) RFU | 0.3 (0.01) RFU | 13.77 (0.31) RFU | 3.65 (1.11) RFU | responding slightly
